Earlier results in US8324248B2, “Piperidine derivatives as NK3 receptor antagonists” (Hoffmann-La Roche Inc., priority 2009, dated 2012).

Settings: phase II trial, cited from earlier work

SMILES: CC(=O)N(C)C1(c2ccccc2)CCN(CCC[C@]2(c3ccc(Cl)c(Cl)c3)CCCN(C(=O)c3ccccc3)C2)CC1 [SR 142,801, Osanetant]
- activity on positive symptoms of schizophrenia (altered behavior, delusion, hallucinations, extreme emotions, excited motor activity, incoherent speech): active
- activity in the treatment of negative symptoms (depression, anhedonia, social isolation or memory and attention deficits): inactive
